Reference: article PMC8776228 (International Journal of Molecular Sciences, 2022)
In brackets after ≈: the same amount, converted by molar mass. Several values for one entry are separate records, joined by “and”; a condition that tells them apart may be missing. Identical values can stand only once. Like-named read-outs stand apart in the source and are kept apart here.

How the values were obtained:
[1] = test system: M. tuberculosis H37Rv; assay: microbe, parasite or virus in culture; format: cell-based; details: Mycobacterium tuberculosis
[2] = test system: M. smegmatis mc^2155; assay: microbe, parasite or virus in culture; format: cell-based, Mycobacterium smegmatis; details: Mycolicibacterium smegmatis
[3] = molecular target: T1, M. smegmatis DprE1 (Mycolicibacterium smegmatis, UniProt A0R607); details: cited from earlier work
[4] = molecular target: T1, M. smegmatis DprE1; assay: biochemical; set-up: species or system Mycobacterium smegmatis
[5] = test system: M. tuberculosis H37Rv
[6] = test system: M. tuberculosis NTB1
[7] = molecular target: T2, M. smegmatis DprE1 C394A (Mycolicibacterium smegmatis, UniProt A0R607, C386A)
[8] = molecular target: T3, M. smegmatis DprE1 C394S (Mycolicibacterium smegmatis, UniProt A0R607, C386S)
[9] = test system: M. smegmatis mc^2155-pJV53H DprE1 L282F
[10] = test system: M. smegmatis mc^2155-pJV53H DprE1 L282V
[11] = test system: M. tuberculosis H37Rv; remark: listed apart in the source
[12] = test system: M. smegmatis mc^2155
[13] = test system: M. avium; details: cited from earlier work
[14] = test system: M. bovis; details: cited from earlier work
[15] = test system: M. tuberculosis; details: cited from earlier work
[16] = test system: M. smegmatis; details: cited from earlier work
[17] = test system: M. kansasii; details: cited from earlier work
[18] = test system: M. abscessus; details: cited from earlier work
[19] = molecular target: T2, M. smegmatis DprE1 C394A; assay: biochemical
[20] = molecular target: T3, M. smegmatis DprE1 C394S; assay: biochemical
[21] = molecular target: M. smegmatis DprE1 L282F (Mycolicibacterium smegmatis, UniProt A0R607, L274F/L282F); assay: biochemical
[22] = molecular target: M. smegmatis DprE1 L282V (Mycolicibacterium smegmatis, UniProt A0R607, L274V/L282V); assay: biochemical

## C[C@H]1COC2(CCN(c3nc(=O)c4cc(C(F)(F)F)cc([N+](=O)[O-])c4s3)CC2)O1 [BTZ043]
[1]; read-out: MIC BTZ043
  MIC: 0.001 µg/mL (≈ 0.00232 µM)
[2]; MC^2155, read-out: MIC BTZ-043
  MIC: 0.008 µg/mL (≈ 0.0185 µM)
[3]
  IC50: 0.004 µM

## CO[C@H]1C[C@H](O[C@@H]2/C(C)=C/C[C@@H]3C[C@@H](C[C@]4(CC[C@H](C)[C@@H](C5CCCCC5)O4)O3)OC(=O)[C@@H]3C=C(C)/C(=N/O)[C@H]4OC/C(=C\C=C\[C@@H]2C)[C@]43O)O[C@@H](C)[C@@H]1O [Selamectin]
[1]; read-out: MIC SEL
  MIC: 4 µg/mL (≈ 5.19 µM)
[4]; IC50
  IC50: ~2.6 µM and 2.6 µM
[2]; MC^2155, read-out: MIC SEL
  MIC: 4 µg/mL (≈ 5.19 µM)
[5]
  day at which the limit of detection (1-log CFU/mL) was reached: 22 day
[6]
  day at which the limit of detection (1-log CFU/mL) was reached: 11 day
  time–kill activity against NTB1 compared to H37Rv: more active
[7]
  IC50 compared to the wild type enzyme: in the same range
[8]
  IC50 compared to the wild type enzyme: slightly higher
[9]
  change in susceptibility compared to wild-type M. smegmatis (MIC): no changes in their susceptibilities
[10]
  change in susceptibility compared to wild-type M. smegmatis (MIC): no changes in their susceptibilities
[11]
  ^14C uptake: general decrease
  changes in lipid composition associated with inhibition of arabinan synthesis: did not result in significant changes
[12]
  ^14C uptake: general decrease
  changes in lipid composition associated with inhibition of arabinan synthesis: did not result in significant changes
[13]
  MIC: 16 µg/mL (≈ 20.8 µM)
[14]
  MIC: 2 to 4 µg/mL
[15]
  MIC: 2 to 4 µg/mL
[16]
  MIC: 2 to 4 µg/mL
[17]
  MIC: 0.5 µg/mL (≈ 0.649 µM)
[18]
  MIC: > 32 µg/mL
[19]
  IC50: 3.9 ± 1 µM
[20]
  IC50: 12.1 ± 1.2 µM
[21]
  IC50: 1 ± 0.7 µM
[22]
  IC50: 50.6 ± 9.2 µM

## Milbemycin oxime
[4]; read-out: IC50
  IC50: 25.5 ± 5.6 µM

## Ivermectin
[4]; read-out: IC50
  IC50: 13.2 ± 3.3 µM

## CO/N=C1\C[C@]2(C[C@@H]3C[C@@H](C/C=C(\C)C[C@@H](C)/C=C/C=C4\CO[C@@H]5[C@H](O)C(C)=C[C@@H](C(=O)O3)[C@]45O)O2)O[C@H](/C(C)=C/C(C)C)[C@H]1C [Moxidectin]
[4]
  IC50: 6.1 ± 0.9 µM

## NNC(=O)c1ccncc1 [INH, isoniazid]
[1]; read-out: MIC INH
  MIC: 0.025 µg/mL (≈ 0.182 µM)
